Experimental data from US20210207064A1, “COMPOUND FOR RESTORING CONTAMINATED SOIL OR CONTAMINATED WATER” (FNG RESEARCH CO., LTD., priority 2018, published 2021).

Experiments:
[1] = Heavy metal removal ability test in contaminated soil (ICP-MS), arsenic; details: for Arsenic (As) Adsorption amount: contaminated soil; for Arsenic (As) Adsorption rate: relative to EDTA control
Description: (§1) (1) Preparation of Soil Contaminated with Heavy Metal
(§2) After collecting and pulverizing uncontaminated soil, fine particles obtained by using a mesh were mixed with the aqueous heavy metal solution to prepare soil samples contaminated with heavy metals.
(§3) Each 3 ml of the prepared aqueous solution was added to a soil sample contaminated with heavy metals and mixed for 5 minutes.
(§4) 50 ml of distilled water was added to the contaminated soil mixed with the aqueous solution for restoring soil, stirred for 20 minutes, and settled for 1 hour, and a supernatant was prepared as a sample solution.
(§5) The prepared sample solution was analyzed for the heavy metal component using an Inductively Coupled Plasma Mass Spectrometer (ICP-MS) (Xseries™ 2, Thermo Fisher Scientific, UK).
(§6) Adsorption rate of heavy metals (%)=(Adsorption amount of Embodiment/Adsorption amount of Control)×100 Equation 1

[2] = Heavy metal removal ability test in contaminated soil around a factory (WAK-Me test kit); details: 1.0 wt % aqueous solution, colour comparison test kit
Description: The contaminated soil around the factory in the industrial complex was collected, pulverized, and meshed to prepare fine particles of soil samples.
Each 3 ml of aqueous solutions for restoring soil was added to soil samples and mixed for 5 minutes.

[3] = Heavy metal removal ability test in contaminated soil (ICP-MS), cadmium; details: for Cadmium (Cd) Adsorption amount: contaminated soil; for Cadmium (Cd) Adsorption rate: relative to EDTA control
Description: as §1, §2, §3, §4, §5, §6

[4] = Formaldehyde (formalin) removing ability test (GC); details: 2.0% formaldehyde solution, 3 molar equivalents of compound, room temperature; for Formaldehyde GC Area, 30 min: after 30 min; for Formaldehyde GC Area, 180 min: after 180 min; for Formaldehyde GC Area, Initial: initial state
human skin = assay: Skin irritation test of active ingredient (patch method, CTFA guidelines); format: in vivo; details: 24 h patch; for Test result (number of subject) (+) / Test result (number of subject) (++) / Test result (number of subject) (±) / Test result (number of subject) (−): 20 people; for Test result (number of subject) (+): (+) apparent reddening; for Test result (number of subject) (++): (++) more reddened and swollen; for Test result (number of subject) (±): (±) slightly reddish; for Test result (number of subject) (−): (−) no erythema
Description: A filter paper disk was placed in an 8 mm diameter, 10 panels of pin chamber.
After 24 hours, the pin chamber was removed, and skin conditions were visually observed. The degree and grade for skin irritation were calculated according to the following Equation 2, and the results are shown in Table 4 below.
[Criteria for Skin Irritation]
(−): No erythema or particularly no symptoms; (±): slightly reddish than the periphery; (+): Apparent reddening than periphery; (++): More reddened and swollen than periphery.
[Grade for Skin Irritation]
Degree of irritation 0-0.1: Grade I (unstimulated);
Degree of irritation 0.11-0.3: Grade II (weakly stimulated);
Degree of irritation 0.31-0.5: Grade III (moderately stimulated);
Degree of irritation 0.51 or more: Grade IV (strongly stimulated)

[5] = Heavy metal removal ability test in contaminated soil (ICP-MS), nickel; details: for Nickel (Ni) Adsorption amount: contaminated soil; for Nickel (Ni) Adsorption rate: relative to EDTA control
Description: as §1, §2, §3, §4, §5, §6

| SMILES | Arsenic (As) Adsorption amount ([1]; content 0.5% aqueous solution) | Arsenic (As) Adsorption rate ([1]; content 0.5%) | Arsenic (As) Adsorption amount ([1]; content 1.0% aqueous solution) | Arsenic (As) Adsorption rate ([1]; content 1.0%) | Arsenic (As) Adsorption amount ([1]; content 2.0% aqueous solution) | Arsenic (As) Adsorption rate ([1]; content 2.0%) | Total amount (Cu, Zn, Mn, Ni, Cd) [2] | Cadmium (Cd) Adsorption amount ([3]; content 0.5% aqueous solution) | Cadmium (Cd) Adsorption rate ([3]; content 0.5%) | Cadmium (Cd) Adsorption amount ([3]; content 1.0% aqueous solution) | Cadmium (Cd) Adsorption rate ([3]; content 1.0%) | Cadmium (Cd) Adsorption amount ([3]; content 2.0% aqueous solution) | Cadmium (Cd) Adsorption rate ([3]; content 2.0%) | Formaldehyde GC Area, 30 min [4] | Formaldehyde GC Area, 180 min [4] | Formaldehyde GC Area, Initial [4] | Test result (number of subject) (+) (human skin; content 0.1 wt %) | Test result (number of subject) (++) (human skin; content 0.1 wt %) | Test result (number of subject) (±) (human skin; content 0.1 wt %) | Test result (number of subject) (−) (human skin; content 0.1 wt %) | further results |
| --- | --- | --- | --- | --- | --- | --- | --- | --- | --- | --- | --- | --- | --- | --- | --- | --- | --- | --- | --- | --- | --- |
| O=C(O)c1ccc(N2CCN(c3ccc(C(=O)O)cc3)CCN(c3ccc(C(=O)O)cc3)CCN(c3ccc(C(=O)O)cc3)CC2)cc1 [Embodiment 6, 4,4′,4″,4′″-(1,4,7,10-tetraazacyclododecane-1,4,7,10-tetrayl)tetrabenzoic Acid] | 42 ppm | 168% | 45 ppm | 180% | 48 ppm | 192% | ≤5 ppm | 61 ppm | 149% | 69 ppm | 168% | 77 ppm | 188% | 0.183 mAU*min | 0 mAU*min | 0.305 mAU*min | 0 | 0 | 0 | 20 | Degree of irritation (human skin; content 0.1 wt %): 0; Grade for skin irritation (human skin; content 0.1 wt %): I (Degree of irritation 0-0.1: Grade I (unstimulated)); Test result (number of subject) (+) (human skin; content 0.5 wt %): 0; Test result (number of subject) (++) (human skin; content 0.5 wt %): 0; Test result (number of subject) (±) (human skin; content 0.5 wt %): 0; Test result (number of subject) (−) (human skin; content 0.5 wt %): 20; Degree of irritation (human skin; content 0.5 wt %): 0; Grade for skin irritation (human skin; content 0.5 wt %): I (Degree of irritation 0-0.1: Grade I (unstimulated)); Test result (number of subject) (+) (human skin; content 1.0 wt %): 0; Test result (number of subject) (++) (human skin; content 1.0 wt %): 0; Test result (number of subject) (±) (human skin; content 1.0 wt %): 1; Test result (number of subject) (−) (human skin; content 1.0 wt %): 19; Degree of irritation (human skin; content 1.0 wt %): 0.05; Grade for skin irritation (human skin; content 1.0 wt %): I (Degree of irritation 0-0.1: Grade I (unstimulated)); Nickel (Ni) Adsorption amount ([5]; content 0.5% aqueous solution): 81 ppm; Nickel (Ni) Adsorption rate ([5]; content 0.5%): 165%; Nickel (Ni) Adsorption amount ([5]; content 1.0% aqueous solution): 83 ppm; Nickel (Ni) Adsorption rate ([5]; content 1.0%): 169%; Nickel (Ni) Adsorption amount ([5]; content 2.0% aqueous solution): 87 ppm; Nickel (Ni) Adsorption rate ([5]; content 2.0%): 178% |
| O=C(O)c1cncc(N2CCN(c3cncc(C(=O)O)c3)CCN(c3cncc(C(=O)O)c3)CCN(c3cncc(C(=O)O)c3)CC2)c1 [Embodiment 7, 5,5′,5″,5′″-(1,4,7,10-tetraazacyclododecane-1,4,7,10-tetrayl)tetranicotinic Acid] | 41 ppm | 164% | 45 ppm | 180% | 51 ppm | 204% | ≤5 ppm | 62 ppm | 151% | 72 ppm | 176% | 76 ppm | 185% | 0.181 mAU*min | 0 mAU*min | 0.305 mAU*min | 0 | 0 | 0 | 20 | Degree of irritation (human skin; content 0.1 wt %): 0; Grade for skin irritation (human skin; content 0.1 wt %): I (Degree of irritation 0-0.1: Grade I (unstimulated)); Test result (number of subject) (+) (human skin; content 0.5 wt %): 0; Test result (number of subject) (++) (human skin; content 0.5 wt %): 0; Test result (number of subject) (±) (human skin; content 0.5 wt %): 0; Test result (number of subject) (−) (human skin; content 0.5 wt %): 20; Degree of irritation (human skin; content 0.5 wt %): 0; Grade for skin irritation (human skin; content 0.5 wt %): I (Degree of irritation 0-0.1: Grade I (unstimulated)); Test result (number of subject) (+) (human skin; content 1.0 wt %): 0; Test result (number of subject) (++) (human skin; content 1.0 wt %): 0; Test result (number of subject) (±) (human skin; content 1.0 wt %): 0; Test result (number of subject) (−) (human skin; content 1.0 wt %): 20; Degree of irritation (human skin; content 1.0 wt %): 0; Grade for skin irritation (human skin; content 1.0 wt %): I (Degree of irritation 0-0.1: Grade I (unstimulated)); Nickel (Ni) Adsorption amount ([5]; content 0.5% aqueous solution): 92 ppm; Nickel (Ni) Adsorption rate ([5]; content 0.5%): 188%; Nickel (Ni) Adsorption amount ([5]; content 1.0% aqueous solution): 97 ppm; Nickel (Ni) Adsorption rate ([5]; content 1.0%): 198%; Nickel (Ni) Adsorption amount ([5]; content 2.0% aqueous solution): 102 ppm; Nickel (Ni) Adsorption rate ([5]; content 2.0%): 208% |
